According to patent US20060069132A1, “Azolecarboxamide herbicides” (priority 2004, published 2006):

How the values were obtained:
lambsquarters = test: Test B pre-/postemergence herbicide test; format: in vivo, Chenopodium album; conditions: for Plant response rating (0 to 100 scale), Lambsquarters: 0 is no effect, 100 is complete control, preemergence
Text: (§1) Seeds selected from barnyardgrass (Echinochloa crus-galli (L.) Beauv.), Surinam grass (Urochloa decumbens (Staph) R. D. Webster, previously named Brachiaria decumbens Stapf), cocklebur (Xanthium strumarium L.), corn (Zea mays L.), large crabgrass (Digitaria sanguinalis (L.) Scop.), giant foxtail (Setaria faberi Herim.), lambsquarters (Chenopodium album L.), morningglory (Ipomoea coccinea L.), pigweed (Amaranthus retroflexus L.), rice (Oryza sativa L.) and velvetleaf (Abutilon theophrasti Medik.) were planted and treated preemergence with test chemicals formulated in a non-phytotoxic solvent mixture which included a surfactant.
(§2) At the same time, plants selected from these crop and weed species and also blackgrass (Alopecurus myosuroides Huds.), wheat (Triticum aestivum L.) and wild oat (Avena fatua L.) were treated with postemergence applications of test chemicals formulated in the same manner. Plants ranged in height from 2 to 18 cm (1- to 4-leaf stage) for postemergence treatments. Plant species in the flooded paddy test consisted of rice (Oryza sativa L.), small flower umbrella sedge (Cyperus difformis L.), ducksalad (Heteranthera limosa (Sw.) Willd.) and barnyardgrass (Echinochloa crus-galli (L.) Beauv.) grown to the 2-leaf stage for testing. Treated plants and controls were maintained in a greenhouse for 13 to 15 days, after which time all species were compared to controls and visually evaluated. Plant response ratings, summarized in Table B, are based on a scale of 0 to 100 where 0 is no effect and 100 is complete control. A dash (-) response means no test result.

barnyardgrass [1] = test: Test B flooded paddy test; format: in vivo, Echinochloa crus-galli; conditions: 1000 g ai/ha, scale 0 to 100 (0 no effect, 100 complete control)
Method: as §2

velvetleaf = test: Test B pre-/postemergence herbicide test; format: in vivo, Abutilon theophrasti; conditions: for Plant response rating (0 to 100 scale), Velvetleaf: 0 is no effect, 100 is complete control, preemergence
Text: as §1, §2

blackgrass = test: Test B postemergence herbicide test; format: in vivo, Alopecurus myosuroides
Method: as §2

wild oat = test: Test B postemergence herbicide test; format: in vivo, Avena fatua
Method: as §2

cocklebur = test: Test B pre-/postemergence herbicide test; format: in vivo, Xanthium strumarium; conditions: for Plant response rating (0 to 100 scale), Cocklebur: 0 is no effect, preemergence
Text: as §1, §2

[2] = tested on: small flower umbrella sedge; test: Test B flooded paddy test; format: in vivo, Cyperus difformis; conditions: 1000 g ai/ha, scale 0 to 100 (0 no effect, 100 complete control)
Method: as §2

giant foxtail = test: Test B pre-/postemergence herbicide test; format: in vivo, Setaria faberi; conditions: for Plant response rating (0 to 100 scale), Foxtail, Giant: 0 is no effect, preemergence
Text: as §1, §2

morningglory = test: Test B pre-/postemergence herbicide test; format: in vivo, Ipomoea coccinea; conditions: for Plant response rating (0 to 100 scale), Morningglory: 0 is no effect, 100 is complete control, preemergence
Text: as §1, §2

pigweed = test: Test B pre-/postemergence herbicide test; format: in vivo, Amaranthus retroflexus; conditions: for Plant response rating (0 to 100 scale), Pigweed: 0 is no effect, 100 is complete control, preemergence
Text: as §1, §2

large crabgrass = test: Test B pre-/postemergence herbicide test; format: in vivo, Digitaria sanguinalis; conditions: for Plant response rating (0 to 100 scale), Crabgrass, Large: 0 is no effect, preemergence
Text: as §1, §2

ducksalad = test: Test B flooded paddy test; format: in vivo, Heteranthera limosa; conditions: 1000 g ai/ha, scale 0 to 100 (0 no effect, 100 complete control)
Method: as §2

barnyardgrass [3] = test: Test B pre-/postemergence herbicide test; format: in vivo, Echinochloa crus-galli; conditions: for Plant response rating (0 to 100 scale), Barnyardgrass: 0 is no effect, preemergence
Text: as §1, §2

Surinam grass = test: Test B pre-/postemergence herbicide test; format: in vivo, Urochloa decumbens; conditions: for Plant response rating (0 to 100 scale), Surinam Grass: 0 is no effect, 100 is complete control, preemergence
Text: as §1, §2

rice = test: Test B flooded paddy test; format: in vivo, Oryza sativa; conditions: 1000 g ai/ha, scale 0 to 100 (0 no effect, 100 complete control)
Method: as §2

wheat = test: Test B postemergence herbicide test; format: in vivo, Triticum aestivum; set-up: key to Wheat plant response rating: 0 = no effect, 100 = complete control
Method: as §2

corn = test: Test B pre-/postemergence herbicide test; format: in vivo, Zea mays; conditions: for Plant response rating (0 to 100 scale), Corn: 0 is no effect, preemergence
Text: as §1, §2

[4] = 125 g ai/ha, visual rating, scale 0 (no effect) to 100 (complete control), postemergence
[5] = Postemergence, 500 g ai/ha, scale 0 (no effect) to 100 (complete control)
[6] = 125 g ai/ha, 100 is complete control
[7] = 500 g ai/ha, scale 0 to 100, 0 no effect, 100 complete control, preemergence
[8] = postemergence, 125 g ai/ha, scale 0 to 100
[9] = postemergence, 500 g ai/ha, scale 0 to 100, 0 is no effect, 100 is complete control

Compound: COC(=O)c1ccc(F)c(NC(=O)c2nn(C(C)C)nc2C)c1 [Compound 398]
- Plant response rating (0 to 100 scale), Lambsquarters (lambsquarters; 125 g ai/ha): 0
- Lambsquarters plant response rating (lambsquarters; [4]): 10
- Lambsquarters plant response rating (lambsquarters; [5]): 10
- Barnyardgrass plant response rating (barnyardgrass [1]): 0
- Plant response rating (0 to 100 scale), Velvetleaf (velvetleaf; 125 g ai/ha): 0
- Velvetleaf plant response rating (velvetleaf; [4]): 20
- Velvetleaf plant response rating (velvetleaf; [5]): 60
- Blackgrass plant response rating (blackgrass; [4]): 0
- Blackgrass plant response rating (blackgrass; [5]): 10
- Oat, Wild plant response rating (wild oat; [4]): 0
- Oat, Wild plant response rating (wild oat; [5]): 0
- Plant response rating (0 to 100 scale), Cocklebur (cocklebur; [6]): 0
- Cocklebur plant response rating (cocklebur; [4]): 0
- Cocklebur plant response rating (cocklebur; [5]): 10
- Sedge, Umbrella plant response rating [2]: 80
- Plant response rating (0 to 100 scale), Foxtail, Giant (giant foxtail; [6]): 0
- Foxtail, Giant plant response rating (giant foxtail; [4]): 20
- Foxtail, Giant plant response rating (giant foxtail; [5]): 30
- Plant response rating (0 to 100 scale), Morningglory (morningglory; 125 g ai/ha): 0
- Morningglory plant response rating (morningglory; [4]): 0
- Morningglory plant response rating (morningglory; [5]): 20
- Plant response rating (0 to 100 scale), Pigweed (pigweed; 125 g ai/ha): 0
- Pigweed plant response rating (pigweed; [4]): 0
- Pigweed plant response rating (pigweed; [5]): 10
- Plant response rating (0 to 100 scale), Crabgrass, Large (large crabgrass; [6]): 0
- Crabgrass, Large plant response rating (large crabgrass; [4]): 0
- Crabgrass, Large plant response rating (large crabgrass; [5]): 10
- Ducksalad plant response rating (ducksalad): 0
- Plant response rating (0 to 100 scale), Barnyardgrass (barnyardgrass [3]; [6]): 0
- Barnyardgrass plant response rating (barnyardgrass [3]; [4]): 0
- Barnyardgrass plant response rating (barnyardgrass [3]; [5]): 0
- Plant response rating (0 to 100 scale), Surinam Grass (Surinam grass; 125 g ai/ha): 0
- Surinam Grass plant response rating (Surinam grass; [4]): 10
- Surinam Grass plant response rating (Surinam grass; [5]): 10
- Rice plant response rating (rice): 10
- Wheat plant response rating (wheat; [4]): 0
- Wheat plant response rating (wheat; [7]): 0
- Wheat plant response rating (wheat; [5]): 10
- Plant response rating (0 to 100 scale), Corn (corn; [6]): 0
- Corn plant response rating (corn; [4]): 0
- Corn plant response rating (corn; [5]): 20

Compound: CCOC(=O)c1ccnc(NC(=O)c2nn(C(C)(C)C)nc2C)c1 [Compound 421]
- Plant response rating (0 to 100 scale), Lambsquarters (lambsquarters; 125 g ai/ha): 0
- Lambsquarters plant response rating (lambsquarters; [5]): 0
- Lambsquarters plant response rating (lambsquarters; [8]): 0
- Barnyardgrass plant response rating (barnyardgrass [1]): 0
- Plant response rating (0 to 100 scale), Velvetleaf (velvetleaf; 125 g ai/ha): 0
- Velvetleaf plant response rating (velvetleaf; [5]): 0
- Velvetleaf plant response rating (velvetleaf; [8]): 0
- Blackgrass plant response rating (blackgrass; [5]): 20
- Blackgrass plant response rating (blackgrass; [8]): 20
- Oat, Wild plant response rating (wild oat; [5]): 0
- Oat, Wild plant response rating (wild oat; [8]): 0
- Plant response rating (0 to 100 scale), Cocklebur (cocklebur; [6]): 0
- Cocklebur plant response rating (cocklebur; [5]): 0
- Cocklebur plant response rating (cocklebur; [8]): 0
- Sedge, Umbrella plant response rating [2]: 0
- Plant response rating (0 to 100 scale), Foxtail, Giant (giant foxtail; [6]): 0
- Foxtail, Giant plant response rating (giant foxtail; [5]): 0
- Foxtail, Giant plant response rating (giant foxtail; [8]): 0
- Plant response rating (0 to 100 scale), Morningglory (morningglory; 125 g ai/ha): 0
- Morningglory plant response rating (morningglory; [5]): 0
- Morningglory plant response rating (morningglory; [8]): 0
- Plant response rating (0 to 100 scale), Pigweed (pigweed; 125 g ai/ha): 0
- Pigweed plant response rating (pigweed; [5]): 0
- Pigweed plant response rating (pigweed; [8]): 0
- Plant response rating (0 to 100 scale), Crabgrass, Large (large crabgrass; [6]): 0
- Crabgrass, Large plant response rating (large crabgrass; [5]): 0
- Crabgrass, Large plant response rating (large crabgrass; [8]): 0
- Ducksalad plant response rating (ducksalad): 0
- Plant response rating (0 to 100 scale), Barnyardgrass (barnyardgrass [3]; [6]): 0
- Barnyardgrass plant response rating (barnyardgrass [3]; Postemergence, 125 g ai/ha, scale 0 (no effect) to 100 (complete control)): 0
- Barnyardgrass plant response rating (barnyardgrass [3]; [5]): 0
- Plant response rating (0 to 100 scale), Surinam Grass (Surinam grass; 125 g ai/ha): 0
- Surinam Grass plant response rating (Surinam grass; [5]): 0
- Surinam Grass plant response rating (Surinam grass; [8]): 0
- Rice plant response rating (rice): 0
- Wheat plant response rating (wheat; [7]): 0
- Wheat plant response rating (wheat; [5]): 0
- Wheat plant response rating (wheat; [8]): 0
- Plant response rating (0 to 100 scale), Corn (corn; [6]): 0
- Corn plant response rating (corn; [5]): 0
- Corn plant response rating (corn; [8]): 0

Compound: C#CCNC(=O)c1cccc(NC(=O)c2nn(C(C)C)nc2CC)c1 [Compound 379]
- Plant response rating (0 to 100 scale), Lambsquarters (lambsquarters; 125 g ai/ha): 0
- Lambsquarters plant response rating (lambsquarters; [4]): 20
- Lambsquarters plant response rating (lambsquarters; [5]): 50
- Barnyardgrass plant response rating (barnyardgrass [1]): 40
- Plant response rating (0 to 100 scale), Velvetleaf (velvetleaf; 125 g ai/ha): 10
- Velvetleaf plant response rating (velvetleaf; [4]): 0
- Velvetleaf plant response rating (velvetleaf; [5]): 10
- Blackgrass plant response rating (blackgrass; [4]): 0
- Blackgrass plant response rating (blackgrass; [9]): 0
- Oat, Wild plant response rating (wild oat; [4]): 0
- Oat, Wild plant response rating (wild oat; [5]): 0
- Plant response rating (0 to 100 scale), Cocklebur (cocklebur; [6]): 0
- Cocklebur plant response rating (cocklebur; [4]): 0
- Cocklebur plant response rating (cocklebur; [9]): 10
- Sedge, Umbrella plant response rating [2]: 70
- Plant response rating (0 to 100 scale), Foxtail, Giant (giant foxtail; [6]): 0
- Foxtail, Giant plant response rating (giant foxtail; [4]): 10
- Foxtail, Giant plant response rating (giant foxtail; [9]): 10
- Plant response rating (0 to 100 scale), Morningglory (morningglory; 125 g ai/ha): 10
- Morningglory plant response rating (morningglory; [4]): 20
- Morningglory plant response rating (morningglory; [5]): 40
- Plant response rating (0 to 100 scale), Pigweed (pigweed; 125 g ai/ha): 20
- Pigweed plant response rating (pigweed; [4]): 20
- Pigweed plant response rating (pigweed; [5]): 50
- Plant response rating (0 to 100 scale), Crabgrass, Large (large crabgrass; [6]): 20
- Crabgrass, Large plant response rating (large crabgrass; [4]): 10
- Crabgrass, Large plant response rating (large crabgrass; [9]): 10
- Ducksalad plant response rating (ducksalad): 70
- Plant response rating (0 to 100 scale), Barnyardgrass (barnyardgrass [3]; [6]): 0
- Barnyardgrass plant response rating (barnyardgrass [3]; [4]): 0
- Barnyardgrass plant response rating (barnyardgrass [3]; [9]): 0
- Plant response rating (0 to 100 scale), Surinam Grass (Surinam grass; 125 g ai/ha): 0
- Surinam Grass plant response rating (Surinam grass; [4]): 10
- Surinam Grass plant response rating (Surinam grass; [5]): 20
- Rice plant response rating (rice): 50
- Wheat plant response rating (wheat; [4]): 0
- Wheat plant response rating (wheat; [7]): 20
- Wheat plant response rating (wheat; [5]): 0
- Plant response rating (0 to 100 scale), Corn (corn; [6]): 0
- Corn plant response rating (corn; [4]): 0
- Corn plant response rating (corn; [9]): 0
